US20120195842A1, “ENHANCED PHOTOSTABILITY OF SUNCARE CO[…]” (priority 2008, published 2012)

Assay: Photostability of avobenzone in thin films of sunscreen compositions irradiated with solar simulated UVR
Format: physicochemical
Conditions: menthyl anthranilate at all levels, composition with octisalate, homosalate and avobenzone, up to 4 hours
Protocol: To investigate its stabilizing effect of menthyl anthranilate on the photostability of avobenzone, menthyl anthranilate (meradimate) was incorporated into a fixed sunscreen composition at different levels. Thin film strips of each composition were then irradiated with solar simulated UVR for up to 4 hours as described in detail below. The compositions were then analyzed for the presence of avobenzone after a given period of time. • Formula compositions were prepared as follows: […]
Assessment of avobenzone's photostability was performed on four different compositions that differed only in the amount of menthyl anthranilate that were used in the formulation.
The photostability of avobenzone in each emulsion was assessed after exposure to 80 joules of UV radiation (which corresponds to about 4 hours of outside sun exposure at noon in Memphis, Tenn. in June) using the method described below. […] Even 1% menthyl anthranilate improved avobenzone's photostability by approximately 6% after 2 hours and by 17% after 4 hours of exposure. […]
Avobenzone's photostability was assessed by spreading known weights (14-18 mg) of emulsions onto glass microscope slides at an application density of about 2 mg/cm^2. […] UVR flux was measured using an OL 754 Spectroradiometer (Optronics laboratories, Inc., Orlando, Fla.) with an 8 inch integrating sphere. […]

CC1CCC(C(C)C)C(OC(=O)c2ccccc2N)C1 (stereo not shown) [menthyl anthranilate]
effect on photostability of avobenzone to ultraviolet radiation (UVR): improves photostability of avobenzone
